The assay deals with T1, Histone deacetylase 6 (Homo sapiens, UniProt Q9UBN7).
T1 sequence (Q9UBN7 whole entry): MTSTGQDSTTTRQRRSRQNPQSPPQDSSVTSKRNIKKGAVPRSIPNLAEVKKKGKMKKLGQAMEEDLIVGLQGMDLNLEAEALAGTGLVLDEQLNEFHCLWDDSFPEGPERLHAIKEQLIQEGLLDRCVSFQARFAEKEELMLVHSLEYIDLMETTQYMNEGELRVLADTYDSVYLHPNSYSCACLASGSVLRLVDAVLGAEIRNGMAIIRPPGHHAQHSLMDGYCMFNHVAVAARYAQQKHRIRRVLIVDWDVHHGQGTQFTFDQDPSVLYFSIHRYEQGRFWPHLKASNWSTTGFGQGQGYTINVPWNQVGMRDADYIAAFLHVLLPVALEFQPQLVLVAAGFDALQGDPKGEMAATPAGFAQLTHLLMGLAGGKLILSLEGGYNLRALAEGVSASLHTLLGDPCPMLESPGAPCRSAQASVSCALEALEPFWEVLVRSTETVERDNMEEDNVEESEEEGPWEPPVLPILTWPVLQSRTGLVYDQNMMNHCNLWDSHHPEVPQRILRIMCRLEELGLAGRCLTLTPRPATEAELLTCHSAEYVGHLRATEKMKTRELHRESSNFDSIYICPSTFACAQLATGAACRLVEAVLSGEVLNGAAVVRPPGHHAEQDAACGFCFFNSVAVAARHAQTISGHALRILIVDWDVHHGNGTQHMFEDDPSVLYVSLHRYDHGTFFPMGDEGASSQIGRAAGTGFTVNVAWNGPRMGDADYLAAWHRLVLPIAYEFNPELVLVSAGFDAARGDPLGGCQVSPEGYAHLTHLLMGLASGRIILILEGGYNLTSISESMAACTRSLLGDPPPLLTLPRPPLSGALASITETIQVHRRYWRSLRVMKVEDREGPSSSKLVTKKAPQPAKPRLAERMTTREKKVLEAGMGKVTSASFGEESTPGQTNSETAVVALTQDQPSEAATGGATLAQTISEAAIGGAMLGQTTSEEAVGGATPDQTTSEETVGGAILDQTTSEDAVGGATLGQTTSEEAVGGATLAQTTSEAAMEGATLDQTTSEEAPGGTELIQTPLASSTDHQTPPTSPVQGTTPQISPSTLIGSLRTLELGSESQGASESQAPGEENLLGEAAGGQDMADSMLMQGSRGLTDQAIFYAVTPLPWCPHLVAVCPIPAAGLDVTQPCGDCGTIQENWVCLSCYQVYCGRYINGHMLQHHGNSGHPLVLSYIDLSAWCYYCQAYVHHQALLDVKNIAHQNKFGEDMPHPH
In words: Inhibition of recombinant full-length human N-terminal GST-tagged HDAC6 expressed in baculovirus infected Sf9 insect cells using fluorescent-labelled Arg-His-Lys-Lys(Ac) as substrate measured after 2 hrs by fluorescence assay.

Take `Cc1c(CN)c2ccccc2n1-c1ccc(C(=O)NO)cc1`: the IC50 is 1.5 nM.

The IC50 is the concentration needed to halve the response being measured.

Source of the values: BindingDB's records for doi:10.1016/j.ejmech.2018.08.073 (Indian Csir-Central Drug Research Institute, 2018).
